From patent EP0726760B1, “SELF-EMULSIBLE FORMULATION FORMING AN OIL-IN-WATER EMULSION” (YISSUM RESEARCH DEVELOPMENT COMPANY OF THE HEBREW …, priority 1993, dated 1995)
Like-named read-outs stand apart in the source and are kept apart here.

Assay: Acute toxicity after intraperitoneal injection, 30 days
Design: species or system souris BALB/c
Conditions: mouse, in vivo, ip, printed 1:10 (0.5), i.p., read-out: % de survivants après 30 jours
Protocol: La toxicité aiguë des formulations décrites dans les exemples II - IV, a été examinée sur des souris BALB/c pendant 30 jours. 0.5 ml de chacun des SEOF dilué au 10ème (plus que 300 fois constitue un surdosage) et au 100ème (plus que 30 fois constitue un surdosage) ont été injectés intrapéritonalement au groupe de 4-6 souris. L'état de l'animal a été surveillé pendant plusieurs heures après le processus et ensuite chaque jour, pandant un mois.

SMILES: OCc1ccccc1 [BA, alcool benzylique]
- survival at 720 h (BA 1.5 % in water for injection): 100%
- survival at 720 h (BA 3 % in water for injection): 15%
